# According to ChEMBL document CHEMBL1142734, “Biological properties of D- and L-1-deoxyazasugars” (J Med Chem, 2005):
# Experiments:
# [1] = molecular target: T1, Beta-mannosidase (Rattus norvegicus) (UniProt Q4FZV0); assay: Percent inhibition of beta-mannosidase of rat epididymis at 1000 uM
# T1 sequence (whole entry): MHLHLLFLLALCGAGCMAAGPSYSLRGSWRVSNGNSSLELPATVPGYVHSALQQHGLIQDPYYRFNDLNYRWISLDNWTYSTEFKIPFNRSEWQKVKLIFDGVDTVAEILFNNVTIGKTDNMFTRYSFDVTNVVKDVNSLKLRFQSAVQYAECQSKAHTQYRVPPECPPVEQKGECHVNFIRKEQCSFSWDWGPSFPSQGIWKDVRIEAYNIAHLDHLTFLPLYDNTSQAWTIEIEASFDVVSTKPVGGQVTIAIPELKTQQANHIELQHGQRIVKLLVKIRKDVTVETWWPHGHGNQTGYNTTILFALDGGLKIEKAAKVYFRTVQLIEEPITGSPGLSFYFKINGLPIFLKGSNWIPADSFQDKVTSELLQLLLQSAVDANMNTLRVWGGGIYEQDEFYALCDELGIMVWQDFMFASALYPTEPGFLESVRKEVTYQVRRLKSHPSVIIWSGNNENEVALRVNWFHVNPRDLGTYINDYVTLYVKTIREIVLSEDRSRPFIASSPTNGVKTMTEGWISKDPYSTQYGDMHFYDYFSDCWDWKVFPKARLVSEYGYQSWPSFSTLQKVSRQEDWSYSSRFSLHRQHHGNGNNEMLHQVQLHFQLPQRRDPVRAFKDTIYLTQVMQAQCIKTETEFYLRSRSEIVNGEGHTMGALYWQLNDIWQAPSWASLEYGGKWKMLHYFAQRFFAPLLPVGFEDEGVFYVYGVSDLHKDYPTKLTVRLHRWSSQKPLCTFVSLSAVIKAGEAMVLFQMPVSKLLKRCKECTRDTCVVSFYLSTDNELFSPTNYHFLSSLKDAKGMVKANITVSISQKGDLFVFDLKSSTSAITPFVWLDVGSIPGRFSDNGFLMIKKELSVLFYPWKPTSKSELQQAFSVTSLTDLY
# [2] = molecular target: T2, Alpha-galactosidase C (Aspergillus niger) (UniProt Q9UUZ4); assay: Percent inhibition of alpha-galactosidase of Aspergillus niger at 1000 uM
# T2 sequence (whole entry): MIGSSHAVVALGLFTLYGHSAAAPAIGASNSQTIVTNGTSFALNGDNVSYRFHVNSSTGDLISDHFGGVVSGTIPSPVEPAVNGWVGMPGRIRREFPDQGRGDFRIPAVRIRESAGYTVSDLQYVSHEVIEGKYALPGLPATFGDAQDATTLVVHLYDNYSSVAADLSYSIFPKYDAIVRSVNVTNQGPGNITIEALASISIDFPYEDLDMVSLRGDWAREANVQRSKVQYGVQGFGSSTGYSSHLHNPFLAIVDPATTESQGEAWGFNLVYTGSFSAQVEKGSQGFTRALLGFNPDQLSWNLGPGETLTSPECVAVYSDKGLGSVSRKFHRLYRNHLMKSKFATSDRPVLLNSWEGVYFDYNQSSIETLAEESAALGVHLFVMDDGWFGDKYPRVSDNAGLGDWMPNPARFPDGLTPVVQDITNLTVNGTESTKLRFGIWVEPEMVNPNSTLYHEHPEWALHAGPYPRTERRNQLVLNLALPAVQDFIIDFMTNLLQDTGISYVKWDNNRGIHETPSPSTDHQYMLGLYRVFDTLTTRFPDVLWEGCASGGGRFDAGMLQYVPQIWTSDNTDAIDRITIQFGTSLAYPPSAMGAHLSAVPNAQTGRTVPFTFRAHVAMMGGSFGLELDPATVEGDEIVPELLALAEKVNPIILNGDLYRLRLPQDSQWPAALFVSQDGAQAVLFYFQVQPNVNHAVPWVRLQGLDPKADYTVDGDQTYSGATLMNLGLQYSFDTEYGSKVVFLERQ
# [3] = Inhibitory concentration against alpha-galactosidase of coffee bean; parameters: species or system Coffea arabica
# [4] = molecular target: Maltase-glucoamylase (Homo sapiens) (UniProt O43451); conditions: 1000 uM
# [5] = molecular target: T3, Beta-galactosidase (Bos taurus) (UniProt Q58D55); assay: Percent inhibition of beta-galactosidase of bovine liver at 1000 uM
# T3 sequence (whole entry): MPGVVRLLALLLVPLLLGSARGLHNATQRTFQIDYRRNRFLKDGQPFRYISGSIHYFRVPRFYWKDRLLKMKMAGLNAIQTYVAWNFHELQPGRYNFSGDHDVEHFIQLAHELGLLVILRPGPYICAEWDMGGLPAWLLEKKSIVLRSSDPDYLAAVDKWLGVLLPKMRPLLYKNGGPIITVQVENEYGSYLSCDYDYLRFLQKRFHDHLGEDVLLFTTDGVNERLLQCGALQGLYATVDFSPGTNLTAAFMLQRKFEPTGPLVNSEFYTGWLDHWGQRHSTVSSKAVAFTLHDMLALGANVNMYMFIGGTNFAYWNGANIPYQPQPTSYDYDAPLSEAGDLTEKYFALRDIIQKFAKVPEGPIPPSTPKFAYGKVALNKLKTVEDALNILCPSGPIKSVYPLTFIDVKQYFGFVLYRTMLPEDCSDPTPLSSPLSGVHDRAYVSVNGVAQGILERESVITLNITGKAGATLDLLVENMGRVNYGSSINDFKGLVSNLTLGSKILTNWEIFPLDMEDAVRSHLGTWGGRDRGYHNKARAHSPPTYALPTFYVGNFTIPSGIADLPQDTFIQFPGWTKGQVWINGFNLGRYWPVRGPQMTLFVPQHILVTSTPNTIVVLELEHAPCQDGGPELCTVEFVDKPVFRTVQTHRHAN
# [6] = molecular target: T4, Tissue alpha-L-fucosidase (Homo sapiens) (UniProt P04066); conditions: 1000 uM
# T4 sequence (whole entry): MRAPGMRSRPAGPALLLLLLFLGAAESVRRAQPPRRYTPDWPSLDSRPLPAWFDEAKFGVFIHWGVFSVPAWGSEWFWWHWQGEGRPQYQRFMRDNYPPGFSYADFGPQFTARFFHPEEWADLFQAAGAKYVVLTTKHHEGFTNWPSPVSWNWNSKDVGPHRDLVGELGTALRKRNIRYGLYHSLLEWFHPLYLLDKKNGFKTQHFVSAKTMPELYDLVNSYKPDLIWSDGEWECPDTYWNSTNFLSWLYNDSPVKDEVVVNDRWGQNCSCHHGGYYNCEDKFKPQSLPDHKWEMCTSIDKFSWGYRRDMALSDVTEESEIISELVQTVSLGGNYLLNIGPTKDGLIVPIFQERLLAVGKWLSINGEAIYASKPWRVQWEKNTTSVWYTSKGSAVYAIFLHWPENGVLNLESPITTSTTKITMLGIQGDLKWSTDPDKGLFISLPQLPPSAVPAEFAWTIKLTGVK
# Maltase-glucoamylase (Homo sapiens), sequence (O43451 whole entry, looked up): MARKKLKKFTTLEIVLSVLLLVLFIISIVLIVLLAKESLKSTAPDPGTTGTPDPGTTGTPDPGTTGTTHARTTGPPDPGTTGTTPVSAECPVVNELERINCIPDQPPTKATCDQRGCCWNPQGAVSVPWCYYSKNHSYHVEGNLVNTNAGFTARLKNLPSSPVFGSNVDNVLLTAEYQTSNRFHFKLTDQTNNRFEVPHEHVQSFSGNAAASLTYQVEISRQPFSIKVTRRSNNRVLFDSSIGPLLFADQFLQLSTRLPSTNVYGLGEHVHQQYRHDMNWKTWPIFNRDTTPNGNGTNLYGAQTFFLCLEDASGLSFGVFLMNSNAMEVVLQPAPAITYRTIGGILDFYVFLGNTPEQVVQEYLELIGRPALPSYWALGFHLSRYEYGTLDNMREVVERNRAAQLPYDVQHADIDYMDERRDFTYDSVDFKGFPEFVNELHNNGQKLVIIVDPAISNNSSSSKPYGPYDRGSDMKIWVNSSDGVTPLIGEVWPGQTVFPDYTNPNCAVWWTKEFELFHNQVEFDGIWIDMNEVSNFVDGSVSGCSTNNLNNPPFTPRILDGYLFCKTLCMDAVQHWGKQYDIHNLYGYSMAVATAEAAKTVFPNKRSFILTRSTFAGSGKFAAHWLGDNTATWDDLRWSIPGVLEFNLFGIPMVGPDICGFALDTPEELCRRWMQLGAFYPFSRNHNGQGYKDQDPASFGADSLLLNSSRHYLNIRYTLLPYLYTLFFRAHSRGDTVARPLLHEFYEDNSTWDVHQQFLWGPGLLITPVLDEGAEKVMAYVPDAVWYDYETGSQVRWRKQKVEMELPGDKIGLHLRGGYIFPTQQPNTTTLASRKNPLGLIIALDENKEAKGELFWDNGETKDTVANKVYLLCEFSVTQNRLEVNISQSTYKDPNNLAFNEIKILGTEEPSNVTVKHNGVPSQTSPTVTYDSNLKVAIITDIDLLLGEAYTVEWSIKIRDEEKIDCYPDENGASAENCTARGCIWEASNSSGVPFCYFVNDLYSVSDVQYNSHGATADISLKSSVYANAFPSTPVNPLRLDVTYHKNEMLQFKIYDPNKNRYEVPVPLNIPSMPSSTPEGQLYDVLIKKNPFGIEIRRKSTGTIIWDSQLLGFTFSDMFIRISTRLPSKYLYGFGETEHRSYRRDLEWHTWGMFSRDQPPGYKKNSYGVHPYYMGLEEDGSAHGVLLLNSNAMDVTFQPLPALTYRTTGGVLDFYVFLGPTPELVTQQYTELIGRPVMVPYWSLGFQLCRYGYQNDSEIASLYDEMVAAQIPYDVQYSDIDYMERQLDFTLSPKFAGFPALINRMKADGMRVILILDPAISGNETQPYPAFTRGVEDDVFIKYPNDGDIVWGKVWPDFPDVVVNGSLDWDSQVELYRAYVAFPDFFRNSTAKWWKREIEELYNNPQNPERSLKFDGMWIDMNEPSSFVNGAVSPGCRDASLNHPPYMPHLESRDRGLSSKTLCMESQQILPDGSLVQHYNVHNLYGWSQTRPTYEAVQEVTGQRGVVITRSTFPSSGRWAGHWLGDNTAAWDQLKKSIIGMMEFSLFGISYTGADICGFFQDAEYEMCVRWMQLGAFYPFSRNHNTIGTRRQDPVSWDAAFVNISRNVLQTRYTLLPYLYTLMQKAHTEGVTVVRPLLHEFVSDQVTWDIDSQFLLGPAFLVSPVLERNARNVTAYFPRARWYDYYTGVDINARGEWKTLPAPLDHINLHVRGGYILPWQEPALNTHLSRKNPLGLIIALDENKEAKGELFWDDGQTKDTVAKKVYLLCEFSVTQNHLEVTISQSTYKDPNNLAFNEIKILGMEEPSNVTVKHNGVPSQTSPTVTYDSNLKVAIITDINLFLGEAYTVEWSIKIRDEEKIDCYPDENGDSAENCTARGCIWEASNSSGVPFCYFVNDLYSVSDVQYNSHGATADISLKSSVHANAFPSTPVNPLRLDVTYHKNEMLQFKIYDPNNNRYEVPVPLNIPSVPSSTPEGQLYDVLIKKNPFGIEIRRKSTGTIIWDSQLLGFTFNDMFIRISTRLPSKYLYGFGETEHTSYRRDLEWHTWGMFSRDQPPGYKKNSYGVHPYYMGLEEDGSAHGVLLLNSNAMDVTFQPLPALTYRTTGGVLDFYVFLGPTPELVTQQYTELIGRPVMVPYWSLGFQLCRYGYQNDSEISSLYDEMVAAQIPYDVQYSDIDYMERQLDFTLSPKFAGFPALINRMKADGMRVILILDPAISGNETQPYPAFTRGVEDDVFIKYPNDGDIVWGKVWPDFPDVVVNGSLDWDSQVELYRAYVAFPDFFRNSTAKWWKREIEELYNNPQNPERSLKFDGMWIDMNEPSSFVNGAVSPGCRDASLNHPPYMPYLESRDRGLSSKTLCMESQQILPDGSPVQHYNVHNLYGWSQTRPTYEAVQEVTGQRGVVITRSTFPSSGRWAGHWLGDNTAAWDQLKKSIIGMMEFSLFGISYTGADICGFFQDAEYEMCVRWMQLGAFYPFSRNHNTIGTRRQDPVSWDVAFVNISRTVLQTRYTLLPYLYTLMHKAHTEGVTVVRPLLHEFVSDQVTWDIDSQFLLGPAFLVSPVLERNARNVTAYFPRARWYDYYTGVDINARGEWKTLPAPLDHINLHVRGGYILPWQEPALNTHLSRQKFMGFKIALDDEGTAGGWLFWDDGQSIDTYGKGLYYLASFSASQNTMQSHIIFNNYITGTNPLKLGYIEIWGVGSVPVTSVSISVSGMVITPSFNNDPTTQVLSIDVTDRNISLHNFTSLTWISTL
Structure (SMILES),inhibition [1] [%],inhibition [2] [%],IC50 [3] [µM],inhibition [4] [%],inhibition [5] [%],inhibition [6] [%]
OC[C@@H]1NC[C@@H](O)[C@H](O)[C@@H]1O,< 50,< 50,13,< 50,–,–
OC[C@@H]1NC[C@H](O)[C@@H](O)[C@@H]1O,< 50,< 50,–,< 50,< 50,< 50
OC[C@@H]1NC[C@@H](O)[C@@H](O)[C@@H]1O,< 50,< 50,–,< 50,< 50,–
OC[C@H]1NC[C@H](O)[C@H](O)[C@H]1O,< 50,< 50,160,< 50,< 50,< 50
OC[C@H]1NC[C@H](O)[C@H](O)[C@@H]1O,< 50,< 50,260,< 50,< 50,–

# The remaining lines, values ahead:
inhibition [1] [%],inhibition [2] [%],IC50 [3] [µM],inhibition [4] [%],inhibition [5] [%],inhibition [6] [%],Structure (SMILES)
< 50,< 50,67,< 50,–,< 50,OC[C@H]1NC[C@@H](O)[C@H](O)[C@H]1O
–,< 50,880,–,–,< 50,OC[C@H]1NC[C@H](O)[C@@H](O)[C@@H]1O [DUVOGLUSTAT]
< 50,< 50,290,< 50,< 50,< 50,OC[C@@H]1NC[C@@H](O)[C@@H](O)[C@H]1O
< 50,< 50,–,< 50,< 50,–,OC[C@H]1NC[C@@H](O)[C@@H](O)[C@@H]1O [DEOXYMANNOJIRIMYCIN]
< 50,< 50,–,< 50,–,< 50,OC[C@@H]1NC[C@@H](O)[C@H](O)[C@H]1O
< 50,–,0.003,< 50,< 50,< 50,OC[C@H]1NC[C@H](O)[C@@H](O)[C@H]1O
< 50,< 50,–,< 50,< 50,< 50,OC[C@@H]1NC[C@H](O)[C@H](O)[C@H]1O
